≈ marks a conversion by molar mass, not a printed value. Like-named read-outs stand apart in the source and are kept apart here. Marks after values point to notes of the source that are not given here.
Columns and labels:
L. major promastigotes [1] = test system: L. major promastigotes; design: method as in PMID 10865470; conditions: cited from earlier work
[2] = test system: VERO (normal African green monkey kidney epithelial cells); assay: Cytotoxicity assay (MTT), VERO; format: cell-based; conditions: 48 h treatment, mean ± SE
Protocol: (§3) RAW 264.7 (murine macrophages) and VERO (normal African green monkey kidney epithelial cells) lines were obtained from Banco de Células do Rio de Janeiro (BCRJ, RJ, Brazil) under the codes 0212 and 0245, respectively. Both were cultured in complete DMEM medium (10% FBS, 100 U/mL penicillin, 100 µg/mL streptomycin, and 3 µg/mL Fungizone®) at 37 °C and 5% CO2 atmosphere. After reaching subconfluence, the cells were washed twice with cold phosphate saline buffer (PBS, pH 7.2), detached by trypsinization, and seeded into 96-well microplates (10^5 cells/100 μL). […] The cells were further incubated under the same conditions for another 48 h. Drug-free cells cultured in DMEM served as positive controls of viability. The concentration of the solvent (DMSO) was normalized in all wells (1%) of treatment and control. Cell viability was assessed using a colorimetric assay based on the reduction of tetrazolium salt [69].

[3] = test system: RAW 264.7 (murine macrophages); assay: Cytotoxicity assay (MTT), RAW 264.7; conditions: 48 h treatment, MTT; mean ± SE
Protocol: as §3

[4] = test system: intracellular L. infantum amastigotes; assay: Inhibition of intracellular amastigotes in infected RAW 264.7 macrophages; format: cell-based, Leishmania infantum; conditions: for number of amastigotes per 100 infected macrophages: 20 μg/mL, 48 h, vs untreated control, p < 0.05; for IC50: Leishmania infantum
Protocol: (§1) After adhesion, the cells were incubated for 24 h in the presence of L. infantum promastigotes at a ratio of 10 parasites per macrophage at 35 °C in a 5% CO2 atmosphere. After the interaction period, the wells were washed with PBS to remove non-internalized promastigotes, and the infected macrophages were incubated for 24 h under the same conditions. […] Untreated infected macrophages served as a positive control for amastigote viability. After 48 h of treatment, the supernatant was collected, and the coverslips were stained with Panoptic. […] The IC50 was then calculated using dose–response curve regression analysis.

[5] = test system: Leishmania infantum promastigotes; assay: Anti-promastigote activity (resazurin), L. infantum; format: cell-based; conditions: for L. infantum IC50 ± SE: promastigotes, resazurin; for IC50: Leishmania infantum
Protocol: (§2) Promastigote forms of Leishmania infantum (MHOM/BR/1974/PP75) and Leishmania amazonensis (IFLA/BR/1967/PH8) were cultured in complete Schneider’s Insect Medium (SIM, 10% FBS). […] Drug-free parasite cultures served as a positive control of viability. […] After 24 h of promastigote incubation, 100 μM resazurin was added, and the cells were cultured for an additional 24 h. At 48 h of the treatment, parasites were assessed fluorometrically (555 nm excitation and 585 nm emission) for viability using a microplate reader Spectra Max M2 (Molecular Devices, CA, USA). Dose–response curves were then generated, and the half-maximal inhibitory concentrations (IC50) for each treatment were determined through regression analysis.

[6] = test system: sheep red blood cells (RBC); conditions: for hemolytic activity (CH50) RBC: sheep RBC, 1 h at 37 °C, mean ± SE
Protocol: Blood samples were washed four times with cold PBS to remove plasma, and a 4% (v/v) RBC suspension was prepared in the same buffer. […] After a 1 h incubation at 37 °C, the reaction was stopped by adding 200 µL of PBS. A positive hemolysis control was performed by adding 200 µL of distilled water to untreated cells. The microplates were then centrifuged (2000 rpm/5 min), and 200 µL of the supernatants were transferred to new 96-well microplates for spectrophotometric analysis at 540 nm (SpectraMax M2, Molecular Devices, CA, USA). The percentage of hemolysis for each treatment was calculated relative to the hemolysis control (100%), and the 50% hemolytic concentration (HC50) was determined through regression analysis of the dose–response curves.

[7] = test system: NO production by RAW 264.7 macrophages infected with L. infantum; assay: NO production (Griess reaction) by L. infantum-infected macrophages; format: cell-based, murine; conditions: 48 h treatment, compared to untreated control
Protocol: as §1
The supernatant from L. infantum-infected macrophages, treated as described in Section 3.11, was collected to assess NO production using the Griess reaction. In short, 100 µL of the collected supernatants were transferred to 96-well microplates, followed by the addition of an equal volume of Griess reagent (0.5% sulfanilamide and 0.05% naphthylenediamine dihydrochloride in 5% phosphoric acid) to each well. The plates were then incubated at room temperature in the dark for 20 min. After incubation, the absorbance was measured at 570 nm.

[8] = test system: Leishmania amazonensis promastigotes; assay: Anti-promastigote activity (resazurin), L. amazonensis; format: cell-based; conditions: 48 h
Protocol: as §2

Pgp = conditions: affected the uptake of rhodamine-123 and digoxin; cited from earlier work
human arginase I = test system: human arginase I; design: method as in PMID 37462864; conditions: cited from earlier work
J774.A.1 macrophages = test system: J774.A.1 macrophages; design: method as in PMID 35325685; conditions: cited from earlier work
[9] = target: recombinant arginase from L. infantum (LiARG) (Leishmania infantum, UniProt A4IB49); assay: LiARG inhibition assay (urea quantification); format: biochemical
Protocol: The expression and purification of recombinant arginase from L. infantum (LiARG) were previously detailed by our group. LiARG inhibition was performed by incubating different concentrations (4.7 to 100 μg/mL) of the samples in the enzymatic reaction solution: 50 mM CHES buffer (pH 9.5) and 50 mM L-arginine. The enzymatic reaction was initiated by adding LiARG (10 μg/mL) and allowed to proceed for 5 min at 37 °C before being stopped on ice. Subsequently, enzymatic activity was assessed by measuring the conversion of L-arginine to urea using a commercial kit (Labtest UREA CE kit®, Lagoa Santa, MG, Brazil). The amount of urea produced in each reaction was determined spectrophotometrically at 600 nm, following its hydrolysis into ammonia and conversion into indophenol blue. […] From that, the IC50 was determined by regression analysis.

intracellular amastigote = conditions: 20 µM, within 24 h of treatment; cited from earlier work
L. braziliensis = conditions: topical 1.5 mg/day, hamsters infected with L. braziliensis; cited from earlier work
mouse arginase = conditions: colorectal cancer model; cited from earlier work
[10] = Cytotoxicity assay (MTT), RAW 264.7; conditions: mouse, RAW 264.7 macrophage cells
Protocol: as §3

[11] = test system: promastigotes and axenic amastigotes of L. donovani; conditions: 15 µM; cited from earlier work
L. major promastigotes [12] = conditions: 15 µM; cited from earlier work
[13] = test system: L. donovani promastigotes; conditions: read-out: IC50 against L. donovani promastigotes; cited from earlier work

## O=C(/C=C/c1ccc(O)cc1)CC(=O)/C=C/c1ccc(O)cc1 [compound 3, bisdemethoxycurcumin]
L. major promastigotes [1]
  IC50 against L. major promastigotes: 21.5 ± 6.9 µg/mL (≈ 69.7 µM)

## COc1cc(/C=C/C(O)=C/C(=O)/C=C/c2ccc(O)cc2)ccc1O [compound 2, demethoxycurcumin]
L. major promastigotes [1]
  IC50 against L. major promastigotes: 14.1 ± 4.8 µg/mL (≈ 41.7 µM)

## O.O.O.O=C([O-])C(O)C(O)C(=O)[O-].O=C([O-])C(O)C(O)C(=O)[O-].[K+].[K+].[Sb].[Sb] (stereo not drawn) [PAT, potassium antimony(III) tartrate hydrate, reference compound]
[2]
  Cytotoxicity (CC50) VERO: 23.9 ± 1.5 ^b μg/mL
[3]
  Cytotoxicity (CC50) RAW 264.7: 30.8 ± 0.73 ^b μg/mL
[4]
  number of amastigotes per 100 infected macrophages: significantly reduced
[4]; infected RAW 264.7, 48 h treatment
  IC50 against intracellular L. infantum amastigotes: 18.9 ± 4.06 µg/mL
[5]; 48 h
  L. infantum IC50 ± SE: <6.25 µg/mL
[6]; at the highest concentration tested (100 μg/mL)
  hemolytic potential: did not show hemolytic potential
[6]
  hemolytic activity (CH50) RBC: >100 µg/mL
[7]
  NO levels: increased NO levels at 10 and 20 µg/mL
[8]; promastigotes, resazurin
  L. amazonensis IC50 ± SE: 11.9 ± 3.1 ^c,d µg/mL

## CC(C)=CC(=O)C[C@H](C)C1C=CC(C)=CC1 (stereo partly drawn) [compound 5, α-turmerone]
Pgp
  Pgp inhibition: Pgp inhibitor

## CC(C)C1=C[C@H]2[C@@H](CC[C@]2(C)O)[C@](C)(O)CC1 [alismoxide]
Human arginase I
  inhibitory activity against human arginase I: showed inhibitory activity

## CC(C)=CC(=O)C[C@H](C)c1ccc(C)cc1 [compound 4, ar-turmerone]
J774.A.1 macrophages
  CC50 J774.A.1 macrophages: 720.06 µg/mL (≈ 3330 µM)

## O=c1c(O)c(-c2ccc(O)c(O)c2)oc2cc(O)cc(O)c12 [Quercetin (7), Quercetin, reference compound]
[9]
  IC50: < 20.7 µM

## COc1cc(/C=C/C(=O)CC(=O)/C=C/c2ccc(O)c(OC)c2)ccc1O [compound 1, curcumin]
Intracellular amastigote
  reduction of intracellular amastigote load: 85%
L. braziliensis
  therapeutic response: 83%
Mouse arginase
  reduction of mouse arginase activity: 73%
[10]
  CC50 at 48 h: 69.8 ± 2.8 µg/mL (≈ 189 µM)
[4]
  number of amastigotes per 100 infected macrophages: significantly reduced
[4]; RAW264.7, 48 h, read-out: IC50 against intracellular L. infantum amastigotes
  IC50: 13.6 µg/mL
[4]; RAW264.7, converted from 13.6 µg/mL, read-out: IC50 against L. infantum intracellular amastigotes
  IC50: ~36.9 µM
L. major promastigotes [1]
  IC50 against L. major promastigotes: 7.8 ± 3.3 µg/mL (≈ 21.2 µM)
[11]
  growth of promastigotes and axenic amastigotes of L. donovani: did not inhibit the growth
[5]; 48 h, read-out: L. infantum IC50 ± SE, promastigotes, 48 h, resazurin
  IC50: 15 µg/mL
[5]; read-out: IC50 against L. infantum promastigotes (molar), converted from 15.5 µg/mL
  IC50: ~42 µM
[5]; 48 h, listed as Curcumin (1)
  L. infantum IC50 ± SE: 15.5 ± 1.7 ^c µg/mL
L. major promastigotes [12]
  growth of L. major promastigotes: did not inhibit the growth
[13]
  IC50: 25 µM
[6]
  hemolytic activity (CH50) RBC: >200 µg/mL
[7]
  NO levels: reduced NO levels at concentrations starting from 5 µg/mL
[9]
  IC50: 47.6 µM
[8]; Leishmania amazonensis, read-out: L. amazonensis IC50 ± SE
  IC50: 5.5 ± 0.45 µg/mL (≈ 14.9 µM)

From publication PMC12195615, “In Vitro and In Silico Assessments of Curcuminoids and Turmerones from Curcuma longa as Novel Inhibitors of Leishmania infantum Arginase” (Pharmaceuticals, 2025)
